Results published in patent publication US20110275138A1, “KETOSE 3-EPIMERASE, ITS PREPARATION AND USES” (KABUSHIKI KAISHA HAYASHIBARA SEIBUTSU KAGAKU KENKYUJO, priority 2005, published 2011).
Read-outs that look alike come from different tables or passages of the source.

What was measured:
[1] = system: ketose 3-epimerase; format: biochemical, Rhizobium leguminosarum ATCC14480
[2] = system: ketose 3-epimerase; assay: Substrate specificity of ketose 3-epimerase (epimer content by HPLC); format: biochemical, Rhizobium leguminosarum ATCC14480; details: for Epimer content in the reaction products: 1% (w/v) substrate, pH 8.0, 1 mM MnCl2, 45° C., 17 hours
Experimental: By using the purified preparation of the ketose 3-epimerase, obtained by the method in Experiment 2, the substrate specificity of the enzyme was investigated using various D- or L-ketohexoses and D- or L-ketopentoses as substrates. Substrate solutions were prepared by dissolving D-fructose, D-psicose, D-tagatose, D-sorbose, D-xylulose, D-ribulose, L-fructose, L-psicose, L-tagatose, L-sorbose, L-xylulose, or L-ribulose into 20 mM Tris-HCl buffer (pH 8.0) containing 1 mM MnCl2 to give a final concentration of 1% (w/v), respectively. Then, each substrate solution was further admixed with 2 units/g-substrate or 20 units/g-substrate, on a dry solid basis, as D-psicose 3-epimerase activity of the purified preparation of the ketose 3-epimerase, obtained by the method in Experiment 2; and followed by the enzyme reaction at 45° C. for 17 hours. After stopping the reaction by keeping the reaction mixture at 100° C. for 10 min, the content of epimer formed from each substrate was measured using high performance liquid chromatography (hereinafter, abbreviated as “HPLC”). HPLC was carried out under the following conditions: • Column: MCI GEL CK08EC, commercialized by Mitsubishi Chemical Corporation, Tokyo, Japan; • Eluent: water; • Column temperature: 75° C. • Flow rate: 0.6 ml/min • Detection: RID-10A, a differential refractometer commercialized by Shimadzu Corporation, Kyoto, Japan;

[3] = 1 mM metal salt, substrate solution without 1 mM MnCl2, None = 100
[4] = 1 mM, in comparison with the case without metal ions
[5] = 1 mM metal salt, substrate solution without 1 mM MnCl2, None = 100, D-fructose determined by HPLC

SMILES | Relative activity [1, 3] | Effect on the ketose 3-epimerase activity (in words) [1, 4] | Epimer content in the reaction products ([2]; enzyme 2 units/g-substrate) | Epimer content in the reaction products ([2]; enzyme 20 units/g-substrate) | other results
[Cl][Cu][Cl] [CuCl2] | 60% | slightly inhibited |  |  | 
O=C(CO)[C@@H](O)[C@@H](O)CO [L-Ribulose, L-ribulose] |  |  | 19.2% | 58.4% | Action of the ketose 3-epimerase on the substrate (in words) [2]: efficiently catalyzed
[Cl][Pb][Cl] [PbCl2] | 69% | slightly inhibited |  |  | 
O=C(CO)[C@H](O)[C@@H](O)[C@@H](O)CO [L-Fructose, L-fructose] |  |  | 0% | 1.4% | 
[Cl][Mn][Cl] [MnCl2] | 283% | Activated |  |  | Relative activity ([1]; 1 mM metal salt, substrate solution without 1 mM MnCl2, None = 100, listed as Mn^2+): about 280%
O=C(CO)[C@@H](O)[C@H](O)[C@H](O)CO [D-Fructose, D-fructose] |  |  | 17.7% | 25.8% | Action of the ketose 3-epimerase on the substrate (in words) [2]: most efficiently catalyzes; Epimer content in the reaction products ([2]; enzyme 2 units/g-substrate, listed as D-fructose): about 18%
[Cl-].[Cl-].[Mg+2] [MgCl2] | 141% | Activated |  |  | Relative activity ([1]; 1 mM metal salt, substrate solution without 1 mM MnCl2, None = 100, listed as Mg^2+): about 140%
[Ba+2].[Cl-].[Cl-] [BaCl2] | 96% |  |  |  | 
[Cl][Fe][Cl] [FeCl2] |  |  |  |  | Relative activity [1, 5]: 67%
[Cl][Al]([Cl])[Cl] [AlCl3] | 86% |  |  |  | 
O=C(CO)[C@@H](O)[C@@H](O)[C@H](O)CO [D-Tagatose, D-tagatose] |  |  | 0.6% | 5.3% | Action of the ketose 3-epimerase on the substrate (in words) [2]: slightly catalyzed
[Cl-].[Cl-].[Co+2] [CoCl2] |  |  |  |  | Effect on the ketose 3-epimerase activity (in words) [1]: not activated; Relative activity [1]: 101%
O=C(O)CN(CCN(CC(=O)O)CC(=O)O)CC(=O)O [EDTA] |  |  |  |  | Effect on the ketose 3-epimerase activity (in words) [1]: not inhibited; Relative activity [1]: 97%
[Cl][Sn][Cl] [SnCl2] | 114% | slightly activated |  |  | 
O=C(CO)[C@H](O)[C@@H](O)[C@H](O)CO [D-Sorbose, D-sorbose] |  |  | 0% | 0.1% | Action of the ketose 3-epimerase on the substrate (in words) [2]: slightly catalyzed
[Cl-].[Cl-].[Sr+2] [SrCl2] | 103% | not activated |  |  | 
O=C(CO)[C@@H](O)[C@H](O)CO [D-Xylulose, D-xylulose] |  |  | 2.3% | 19.6% | Action of the ketose 3-epimerase on the substrate (in words) [2]: efficiently catalyzed
O=C(CO)[C@H](O)[C@H](O)CO [D-Ribulose, D-ribulose] |  |  | 17.1% | 43.4% | Action of the ketose 3-epimerase on the substrate (in words) [2]: efficiently catalyzed
O=C(CO)[C@H](O)[C@H](O)[C@@H](O)CO [L-Tagatose, L-tagatose] |  |  | 3.2% | 26.7% | 
O=C(CO)[C@@H](O)[C@H](O)[C@@H](O)CO [L-Sorbose, L-sorbose] |  |  | 0% | 6.2% | 
O=C(CO)[C@H](O)[C@H](O)[C@H](O)CO [D-Psicose, D-psicose] |  |  | 39.4% | 74.1% | Action of the ketose 3-epimerase on the substrate (in words) [2]: most efficiently catalyzes; Epimer content in the reaction products ([2]; enzyme 2 units/g-substrate, listed as D-psicose): about 39%
[Cl-].[Cl-].[Zn+2] [ZnCl2] | 13% | remarkable inhibited |  |  | 
O=C(CO)[C@H](O)[C@@H](O)CO [L-Xylulose, L-xylulose] |  |  | 1.6% | 10.3% | Action of the ketose 3-epimerase on the substrate (in words) [2]: efficiently catalyzed
[Cl][Hg][Cl] [HgCl2, mercury chloride] |  | remarkable inhibited |  |  | Relative activity [1, 5]: 35%
[Ca+2].[Cl-].[Cl-] [CaCl2] | 89% |  |  |  | 
O=C(CO)[C@@H](O)[C@@H](O)[C@@H](O)CO [L-Psicose, L-psicose] |  |  | 1.6% | 11.3% | 
[Cl][Fe]([Cl])[Cl] [FeCl3] |  |  |  |  | Relative activity [1, 5]: 64%
[Cl][Ni][Cl] [NiCl2] | 64% | slightly inhibited |  |  | 
